Experimental data: paper PMC9667784, “Synthesis, biological evaluation and computational studies of pyrazole derivatives as Mycobacterium tuberculosis CYP121A1 inhibitors” (RSC Medicinal Chemistry, 2022)
Values after ≈ are worked out from the molar mass of the structure shown. Values joined by “and” are separate entries in the source; they are usually repeats but may differ in a detail not shown here. Equal entries are not always repeated. Where two headings read alike, the source gives them in different places.

Columns and labels:
Mtb H37Rv [1] = assay: microbe, parasite or virus in culture; type: cell-based; details: Mycobacterium tuberculosis
Mtb CYP121A1 = molecular target: T1, Mtb CYP121A1 (Mycobacterium tuberculosis, UniProt P9WPP7); assay: biochemical; type: binding; details: for Kd: 1 μM protein, 0 to 150 μM compound, plate reader, triplicate; for Soret shift: UV-vis absorbance, Soret band shift on ligand binding; for Spectral response in the UV-vis assay: compared with the imidazole derivatives
T1 construct: made in house

Mtb = system: Mtb; parameters: method as in PMID 31367508; details: lead diarylpyrazole derivatives, Fig. 2; cited from earlier work
CYP121A1 = details: lead diarylpyrazole derivatives, Fig. 2; cited from earlier work
Mtb H37Rv [2] = system: Mtb H37Rv; parameters: method as in PMID 29185746; details: previously prepared methoxy derivatives; cited from earlier work
[3] = Mtb H37Rv, SPOTi, five weeks at 37 °C, average of two independent experiments, read-out: MIC90

T1 sequence (P9WPP7 whole entry): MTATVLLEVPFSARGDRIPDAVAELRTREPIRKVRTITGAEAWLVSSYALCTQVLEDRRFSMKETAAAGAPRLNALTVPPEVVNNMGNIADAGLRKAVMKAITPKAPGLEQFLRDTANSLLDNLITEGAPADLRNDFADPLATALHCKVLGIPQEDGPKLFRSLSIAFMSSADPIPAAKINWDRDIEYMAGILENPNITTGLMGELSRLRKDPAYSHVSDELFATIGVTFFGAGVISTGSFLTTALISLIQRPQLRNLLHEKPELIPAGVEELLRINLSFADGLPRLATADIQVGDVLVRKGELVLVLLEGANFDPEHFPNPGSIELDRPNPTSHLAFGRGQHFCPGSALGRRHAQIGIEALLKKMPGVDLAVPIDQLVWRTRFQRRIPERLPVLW

In the case of `COc1ccc(-c2nn(-c3ccc(F)cc3)cc2Cn2ccnc2)cc1` [11a, 4-((1H-Imidazol-1-yl)methyl)-1-(4-fluorophenyl)-3-(4-methoxyphenyl)-1H-pyrazole], the MIC90 (Mtb H37Rv [1]; [3]) is reported as 4.3 µg/mL and 12.3 µM, the Kd (Mtb CYP121A1) is reported as 65 ± 16.6 µM and the Soret shift (Mtb CYP121A1) is reported as 417 to 421 nm. It also gave a melting point of 150 to 152 °C.

For `CCCOc1ccc(-c2nn(-c3ccc(Cl)cc3)cc2Cn2ccnc2)cc1` [11f, 4-((1H-Imidazol-1-yl)methyl)-1-(4-chlorophenyl)-3-(4-propoxyphenyl)-1H-pyrazole], the MIC90 (Mtb H37Rv [1]; [3]) was 4 µg/mL and 10.1 µM, the Kd (Mtb CYP121A1) was 11.7 µM and the Soret shift (Mtb CYP121A1) was 417 to 419 nm. The “Binding type from difference spectra (type I / type II)” value (Mtb CYP121A1; UV-vis binding difference spectra) was “type II” and the melting point was 90 to 92 °C.

In the case of `COc1ccc(-c2nn(-c3ccc(Cl)cc3)cc2Cn2cncn2)cc1` [12b, 1-((1-(4-Chlorophenyl)-3-(4-methoxyphenyl)-1H-pyrazol-4-yl)methyl)-1H-1,2,4-triazole], the MIC90 (Mtb H37Rv [1]; [3]) is reported as 4.4 µg/mL and 11.9 µM, the Kd (Mtb CYP121A1) is reported as 5.13 µM and 5.1 µM and the Soret shift (Mtb CYP121A1) is reported as 417 to 417 nm. The “Spectral response in the UV-vis assay” value (Mtb CYP121A1) was “weak spectral response” and the melting point was 124 to 126 °C.

In the case of `CC(C)Oc1ccc(-c2nn(-c3ccc(Cl)cc3)cc2Cn2ccnc2)cc1` [11h, 4-((1H-Imidazol-1-yl)methyl)-1-(4-chlorophenyl)-3-(4-isopropoxyphenyl)-1H-pyrazole], the MIC90 (Mtb H37Rv [1]; [3]) is reported as 4.4 µg/mL and 11.9 µM, the Kd (Mtb CYP121A1) is reported as 17.7 µM and the Soret shift (Mtb CYP121A1) is reported as 417 to 419 nm. The melting point was 98 to 100 °C.

For `CCCc1ccc(-c2nn(-c3ccccc3)cc2Cn2ccnc2)cc1` [R = Pr], the MIC (Mtb) is listed as 0.78 µg/mL and 0.781 µg/mL and the Kd (CYP121A1) is listed as 53.7 ± 5.9 µM.

For `COc1ccc(-c2nn(-c3ccccc3)cc2Cn2ccnc2)cc1` [P1], the MIC90 (Mtb H37Rv [2]) is listed as 25 µg/mL (≈ 75.7 µM).

In the case of `CO[C@H]1/C=C/O[C@@]2(C)Oc3c(C)c(O)c4c(O)c(c(/C=N/N5CCN(C)CC5)c(O)c4c3C2=O)NC(=O)/C(C)=C\C=C\[C@H](C)[C@H](O)[C@@H](C)[C@@H](O)[C@@H](C)[C@H](OC(C)=O)[C@@H]1C` [Rifampicin, reference compound], the MIC90 (Mtb H37Rv [1]; [3]) is reported as 0.2 µg/mL and 0.3 µM.

For `CCCOc1ccc(-c2nn(-c3ccc(F)cc3)cc2Cn2cncn2)cc1` [12e, 1-((1-(4-Fluorophenyl)-3-(4-propoxyphenyl)-1H-pyrazol-4-yl)methyl)-1H-1,2,4-triazole], the MIC90 (Mtb H37Rv [1]; [3]) was 20.9 µg/mL and 55.5 µM and the melting point was 120 to 122 °C.

For `CC(C)c1ccc(-c2nn(-c3ccccc3)cc2Cn2ccnc2)cc1` [R = iPr], the MIC (Mtb) is listed as 1.562 µg/mL (≈ 4.56 µM) and the Kd (CYP121A1) is listed as 22.5 ± 3.5 µM.

With `CCCOc1ccc(-c2nn(-c3ccc(F)cc3)cc2Cn2ccnc2)cc1` [11e, 4-((1H-Imidazol-1-yl)methyl)-1-(4-fluorophenyl)-3-(4-propoxyphenyl)-1H-pyrazole] the MIC90 (Mtb H37Rv [1]; [3]) was 6 µg/mL and 15.9 µM, the Kd (Mtb CYP121A1) was 22.3 ± 4.2 µM and the Soret shift (Mtb CYP121A1) was 417 to 420 nm. It also gave a melting point of 120 to 122 °C.

With `COc1ccc(-c2nn(-c3ccc(Cl)cc3)cc2Cn2ccnc2)cc1` [11b, 4-((1H-Imidazol-1-yl)methyl)-1-(4-chlorophenyl)-3-(4-methoxyphenyl)-1H-pyrazole] the MIC90 (Mtb H37Rv [1]; [3]) was 6 µg/mL and 16.5 µM and the melting point was 136 to 138 °C.

With `CC(C)Oc1ccc(-c2nn(-c3ccc(F)cc3)cc2Cn2cncn2)cc1` [12g, 1-((1-(4-Fluorophenyl)-3-(4-isopropoxyphenyl)-1H-pyrazol-4-yl)methyl)-1H-1,2,4-triazole] the MIC90 (Mtb H37Rv [1]; [3]) was 20.9 µg/mL and 55.5 µM and the melting point was 118 to 120 °C.

With `CCOc1ccc(-c2nn(-c3ccc(F)cc3)cc2Cn2cncn2)cc1` [12c, 1-((3-(4-Ethoxyphenyl)-1-(4-fluorophenyl)-1H-pyrazol-4-yl)methyl)-1H-1,2,4-triazole] the MIC90 (Mtb H37Rv [1]; [3]) was 25.6 µg/mL and 70.5 µM and the melting point was 140 to 142 °C.

With `CC(C)Oc1ccc(-c2nn(-c3ccc(F)cc3)cc2Cn2ccnc2)cc1` [11g, 4-((1H-Imidazol-1-yl)methyl)-1-(4-fluorophenyl)-3-(4-isopropoxyphenyl)-1H-pyrazole] the MIC90 (Mtb H37Rv [1]; [3]) was 4.3 µg/mL and 11.4 µM, the Kd (Mtb CYP121A1) was 38.5 ± 8.7 µM and the Soret shift (Mtb CYP121A1) was 417 to 419 nm. The melting point was 96 to 98 °C.

In the case of `COc1ccc(-c2nn(-c3ccc(F)cc3)cc2Cn2cncn2)cc1` [12a, 1-((1-(4-Fluorophenyl)-3-(4-methoxyphenyl)-1H-pyrazol-4-yl)methyl)-1H-1,2,4-triazole], the MIC90 (Mtb H37Rv [1]; [3]) is reported as 12.8 µg/mL and 36.7 µM and the melting point is reported as 150 to 152 °C.

With `CCOc1ccc(-c2nn(-c3ccc(Cl)cc3)cc2Cn2cncn2)cc1` [12d, 1-((1-(4-Chlorophenyl)-3-(4-ethoxyphenyl)-1H-pyrazol-4-yl)methyl)-1H-1,2,4-triazole] the MIC90 (Mtb H37Rv [1]; [3]) was 6.4 µg/mL and 16.8 µM, the “Spectral response in the UV-vis assay” value (Mtb CYP121A1) was “weak spectral response” and the melting point was 122 to 124 °C.

With `CC(C)Oc1ccc(-c2nn(-c3ccc(Cl)cc3)cc2Cn2cncn2)cc1` [12h, 1-((1-(4-Chlorophenyl)-3-(4-isopropoxyphenyl)-1H-pyrazol-4-yl)methyl)-1H-1,2,4-triazole] the MIC90 (Mtb H37Rv [1]; [3]) was 25.6 µg/mL and 65.1 µM and the melting point was 98 to 100 °C.

With `CCCOc1ccc(-c2nn(-c3ccc(Cl)cc3)cc2Cn2cncn2)cc1` [12f, 1-((1-(4-Chlorophenyl)-3-(4-propoxyphenyl)-1H-pyrazol-4-yl)methyl)-1H-1,2,4-triazole] the MIC90 (Mtb H37Rv [1]; [3]) was 6.4 µg/mL and 16.2 µM and the melting point was 114 to 116 °C.

With `NC[C@H]1O[C@H](O[C@H]2[C@H](O)[C@@H](O[C@H]3O[C@H](CO)[C@@H](O)[C@H](N)[C@H]3O)[C@H](N)C[C@@H]2N)[C@H](O)[C@@H](O)[C@@H]1O` [Kanamycin, reference compound] the MIC90 (Mtb H37Rv [1]) was 7.8 µg/mL and 16.1 µM.

With `NNC(=O)c1ccncc1` [Isoniazid, reference compound] the MIC90 (Mtb H37Rv [1]; [3]) was 0.2 µg/mL and 1.8 µM.

In the case of `CCOc1ccc(-c2nn(-c3ccc(Cl)cc3)cc2Cn2ccnc2)cc1` [11d, 4-((1H-Imidazol-1-yl)methyl)-1-(4-chlorophenyl)-3-(4-ethoxyphenyl)-1H-pyrazole], the MIC90 (Mtb H37Rv [1]; [3]) is reported as 5 µg/mL and 13.3 µM, the Kd (Mtb CYP121A1) is reported as 18.8 ± 10.2 µM and the Soret shift (Mtb CYP121A1) is reported as 417 to 420 nm. It also gave a melting point of 124 to 126 °C.

For `CCOc1ccc(-c2nn(-c3ccc(F)cc3)cc2Cn2ccnc2)cc1` [11c, 4-((1H-Imidazol-1-yl)methyl)-3-(4-ethoxyphenyl)-1-(4-fluorophenyl)-1H-pyrazole], the MIC90 (Mtb H37Rv [1]; [3]) was 12 µg/mL and 33.2 µM, the Kd (Mtb CYP121A1) was 54 ± 5.2 µM and the Soret shift (Mtb CYP121A1) was 417 to 422 nm. The melting point was 118 to 120 °C.

For `CCc1ccc(-c2nn(-c3ccccc3)cc2Cn2ccnc2)cc1` [R = Et], the MIC (Mtb) is given as 1.562 µg/mL (≈ 4.76 µM) and the Kd (CYP121A1) is given as 18.3 ± 3.4 µM.

For `COc1ccc(-c2nn(-c3ccccc3)cc2Cn2cncn2)cc1` [P2], the MIC90 (Mtb H37Rv [2]) is listed as 25 µg/mL (≈ 75.4 µM).
